Assay results as given in publication PMC4141193 (FEBS Open Bio, 2014).

Columns and labels:
[1] = target: X-linked inhibitor of apoptosis protein (XIAP) (Homo sapiens, UniProt P98170); assay: competitive fluorescence polarization with ARPF-FAM probe; format: binding
[2] = target: ARPF-K(5-Fam)-NH2-peptide; assay: fluorescence polarisation

X-linked inhibitor of apoptosis protein (XIAP), sequence (P98170 238-359): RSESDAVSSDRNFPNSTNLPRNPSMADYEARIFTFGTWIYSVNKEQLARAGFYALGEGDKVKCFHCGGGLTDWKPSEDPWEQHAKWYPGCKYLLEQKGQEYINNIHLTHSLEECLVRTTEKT

Row | Compound | Ki [1] [µM] | Kd [2] [µM]
1 | CCCCCCCCCCCC1=C(O)C(=O)C=C(O)C1=O [embelin] | 22.3 | 
2 | recombinant XIAP-BIR3 domain protein (domain or fragment) |  | 0.145
